Where two headings read alike, the source gives them in different places.
Key:
[1] = test system: HepaRG™ cells
From the text: Cryopreserved HepaRG™ (HPRGC10), a terminally differentiated hepatic cell line, was purchased from ThermoFisher Scientific (Waltham, MA). HepaRG™ was thawed and cultured according to manufacturer's instructions. Briefly, the general purpose working medium was WEM supplemented with 1X GlutaMAX™ and 1X HepaRG™ Thaw, Plate, & General Purpose Medium Supplement. The metabolism working medium was WEM supplemented with 1X GlutaMAX™ and HepaRG™ Maintenance/Metabolism Medium Supplement. HepaRG™ cells were thawed in the general purpose working medium and plated in a 96-well plate coated with collagen I at 100 000 cells/well. One day after plating, the general purpose working medium was changed to the metabolism working medium. The metabolism working medium was renewed on day 4 and day 6 after plating. On day 7, the cells were treated in the metabolism working medium.
To load cells into microwells, ∼2000–200 000 cells in suspension were placed into each macrowell, and the chip was incubated at 37°C in the presence of 5% CO2 for 15 min. Cell were loaded into microwells by gravity, and excess cells were then washed off with PBS by shear force. The chip was covered with a layer of overlay agarose (1% w/v low-melting point agarose solution in PBS, kept molten at 43°C until use). For complete gelation of the overlay agarose, the chip was kept at room temperature for two minutes followed by 2 min at 4°C.
The alkaline comet assay was performed as previously ([15],[79]). Sodium chloride (NaCl, 7581), disodium EDTA (Na2EDTA, 4931), and sodium hydroxide pellets (NaOH, 7708) were purchased from VWR, Radnor, PA. Trizma® base (T1503), Trizma® HCl (T5941) and Triton X-100 (X-100) were obtained from MilliporeSigma, St. Louis, MO. 10 000× SYBR™ Gold nucleic acid gel stain was obtained from ThermoFisher Scientific, Waltham, MA.
The alkaline lysis buffer (pH ∼ 10) was a solution of 2.5 M NaCl, 100 mM Na2EDTA, 10 mM Trizma® base, and 1% (v/v) Triton X-100 dissolved in deionized H2O (dI H2O). […] The neutralization buffer (pH ∼ 7.5) was prepared by dissolving Trizma® HCl in distilled H2O to a final concentration of 0.4 M.
(§1) Cells encapsulated in CometChip were lysed in the alkaline lysis buffer overnight at 4°C. The nuclei were unwound in the alkaline unwinding buffer for 40 min at 4°C, and the DNA was electrophoresed in the same buffer at the same temperature for 30 min at 1 V/cm and ∼300 mA. The CometChip was then washed three times in neutralization buffer by submerging for 5 min each time.
(§2) The DNA on CometChip was stained for 15 min at room temperature with 1× of SYBR™ Gold diluted in PBS, protected from light. Fluorescent images of the comets were captured at 40× magnification using an epifluorescence microscope (Nikon Eclipse 80i, Nikon Instruments, Inc., Melville, NY, USA) with a 480 nm excitation filter. Image acquisition was achieved by automatic scanning using a motorized XY stage. Comet images were automatically analyzed using Guicometanalyzer, a custom software developed in MATLAB (The MathWorks Inc., Natick, MA, USA) as previously described ([15]). For each condition, 100 comets or more were analysed. Outputs from Guicometanalyzer were processed and imported to a spreadsheet (Microsoft Excel, Microsoft Office Suite 2016) using Comet2Excel, an in-house software developed in Python (Python Software Foundation, Python version 2.7.10). Software is freely available upon request.
For this experiment, the comets were analysed using Trevigen® Comet Analysis Software.
A vehicle control condition was included by diluting DMSO in cell culture medium to get a final concentration of 0.5%. Cells were incubated with the test compound for 24 h at 37°C in the presence of 5% CO2.
HepaRG™ were incubated with the test compound for 24 h at 37°C in the presence of 5% CO2. A vehicle control (1% DMSO) was included.

[2] = test system: Xpa−/− mouse hepatocytes; settings: presence of HU/AraC, 24 h, compared with WT
Protocol: as §1
as §2, with “Outputs from Guicometanalyzer were processed and imported to a spreadsheet (Microsoft Excel, Microsoft Office Suite 2016) using Comet2Excel, an in-house software developed in Python (Python Software Foundation, Python version 2.7.10). Software is freely available upon request.” left out
(§3) Primary mouse hepatocytes were obtained from 10 to 14 weeks old C57Bl6 mice using a standard two-step collagenase liver perfusion procedure with minor changes ([80],[81]). […] Cell viability and cell number were analyzed using an automated Trypan Blue exclusion system [Vi-CELL™ cell counter (Beckman Coulter Life Sciences, Brea, CA)]. […]

[3] = test system: primary mouse hepatocytes; settings: WT primary mouse hepatocytes; absence of HU/AraC; 24 h
Protocol: as §1
as §2, with “Outputs from Guicometanalyzer were processed and imported to a spreadsheet (Microsoft Excel, Microsoft Office Suite 2016) using Comet2Excel, an in-house software developed in Python (Python Software Foundation, Python version 2.7.10). Software is freely available upon request.” left out
as §3

[4] = target: T1, CYP1A2 (Homo sapiens, UniProt P05177); assay type: cell-based; set-up: endogenous in cells; settings: HepaRG; B[a]P 24 h
T1 sequence (P05177 whole entry): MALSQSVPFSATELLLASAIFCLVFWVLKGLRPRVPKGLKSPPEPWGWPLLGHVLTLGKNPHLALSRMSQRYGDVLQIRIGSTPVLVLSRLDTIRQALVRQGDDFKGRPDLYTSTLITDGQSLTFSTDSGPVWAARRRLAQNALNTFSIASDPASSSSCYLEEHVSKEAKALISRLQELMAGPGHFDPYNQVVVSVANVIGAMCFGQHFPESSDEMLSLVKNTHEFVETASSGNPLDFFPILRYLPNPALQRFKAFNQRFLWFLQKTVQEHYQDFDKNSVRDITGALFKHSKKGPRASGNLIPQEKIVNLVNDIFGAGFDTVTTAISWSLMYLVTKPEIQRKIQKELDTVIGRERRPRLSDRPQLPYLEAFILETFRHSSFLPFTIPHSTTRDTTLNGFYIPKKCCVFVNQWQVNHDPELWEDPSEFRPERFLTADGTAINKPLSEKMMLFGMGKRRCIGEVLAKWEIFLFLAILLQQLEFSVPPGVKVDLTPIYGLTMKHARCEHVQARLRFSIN
Protocol: (§4) The CYP450-Glo™ CYP3A4 assay with luciferin-IPA (V9001) and the CYP450-Glo™ CYP1A2 assay with luciferin-1A2 (V8421) were purchased from Promega, Madison, WI. The activity levels of CYP3A4 and CYP1A2 in cells were measured according to the manufacturer's protocol for non-lytic cell-based assays. Luminescent signals were recorded using a SpectraMax M2e microplate reader (Molecular Devices, Sunnyvale, CA, USA). Control wells with no cells were included to obtain background luminescence. The net signal for each sample was obtained by subtracting the background luminescence value.
(§5) CYP3A4 or CYP1A2 activity per cell can be obtained by normalizing CYP450-Glo™ values with cell numbers. After a sample was analyzed for CYP3A4 or CYP1A2 activity, the CTG® assay was performed to obtain an estimate of the number of viable cells in the sample. The result from CYP450-Glo™ was then divided by the CTG® value to obtain the average CYP3A4 or CYP1A2 activity per cell.

[5] = target: T1, CYP1A2; assay type: cell-based; set-up: endogenous in cells; host or cells: HepG2; settings: HepG2; B[a]P 24 h
Protocol: as §4, §5

SMILES: c1ccc2c(c1)cc1ccc3cccc4ccc2c1c34 [B[a]P, Benzo[a]pyrene]
- Genotoxicity Alkaline CometChip HepaRG (+ HU + AraC) +/− [1]: +
- Genotoxicity Alkaline CometChip HepaRG +/− [1]: −
- SSBs [2]: not significantly
- SSBs [3]: significant, but relatively small, increase in SSBs
- CYP1A2 activity level (induction) [4]: induced in a dose-dependent manner
- CYP1A2 activity level (induction) [5]: induced in a dose-dependent manner
